Read-outs that look alike come from different tables or passages of the source. One block for each compound: values may come before it.
Tests used:
[1] = In vivo rat model: plasma anti Xa after buccal dosing of gel; parameters: species or system rat (Wistar preferred); settings: Gel Formulation 11
Protocol: The in vivo delivery of heparinic anticoagulant from a gel is determined using a rat model.
This method uses rats of 220 to 500 grams in weight. Wistar rats are the preferred strain. The rats are anesthetized with ether and then a 2 cm vertical incision is made first through the skin and then through the underlying muscle. The esophagus is isolated and tied off with a surgical ligature. The incision is closed with a surgical stapler. After surgery the rats are dosed with the gel by syringe administration with half of the total dose in each cheek. The rats are slightly reanesthesized for dosing and blood withdrawal. Blood samples are withdrawn at 0, 1, 2, 3 and 4 hours post dose. Heparinic anticoagulant concentrations in plasma are determined by an enzymatic method measuring anti Xa using a test kit (Stachrom™ Heparin from Diagnostica Stago, 9 rue des Freres Chausson, 92600 Asnieres-sur Seine, France). Results are reported as the number of anti Xa units per mL of plasma.
A formulation was prepared according to the method set forth above in connection with Gel Formulation 1, except that the sodium dodecyl sulfate was eliminated and the penetration enhancers shown in Table 15 below were incorporated at 2, 5 and/or 10 percent by weight based on the total weight of the gel formulation. Low molecular weight heparin (mean molecular weight from 3450 to 4950 daltons with anti Xa of 65 to 144 units/mg, Bioiberica, Barcelona, Spain) was incorporated at concentrations of 10, 25 and 50 mg of heparin per mL of gel. In vivo delivery was determined using the rat model described above. Each rat was dosed with 0.2 mL of gel formulation to provide the dose of heparin shown in Table 15, wherein "n" designates the number of rats studied. The values obtained were used to calculate the promoting effect (P for each formulation. The promoting effect was calculated using the equation given below: [formula] where: Cmax (H) is equal to the maximal anti Xa activity in plasma after heparin administration without enhancer and Cmax (H+E) is equal to the maximal anti Xa activity in plasma after heparin administration with the enhancer. The results are shown in Table 15 below.

Xa = settings: cited from earlier work
[2] = enhancer 5 wt%, heparin 5 mg/rat

promoting effect (P %) ([1]; enhancer 10 wt%, heparin 10 mg/rat): +142%
Compound: CCCCCCCCCCCCCCCC(=O)OC(CC(=O)O)C[N+](C)(C)C (racemic) [Palmitoyl DL carnitine chloride]

Compound: C[C@H](CCC(=O)NCCC[N+](C)(C)CCCS(=O)(=O)[O-])[C@H]1CC[C@H]2[C@@H]3[C@H](O)C[C@@H]4C[C@H](O)CC[C@]4(C)[C@H]3C[C@H](O)[C@]12C [CHAPS]
promoting effect (P %) [1, 2]: +2%

Compound: O=C1CCCN1 [Pyrrolidone]
promoting effect (P %) [1, 2]: -31%

Compound: C[C@H](CCC(=O)O)[C@H]1CC[C@H]2[C@@H]3CC[C@@H]4C[C@H](O)CC[C@]4(C)[C@H]3C[C@H](O)[C@]12C [Sodium deoxycholate]
promoting effect (P %) ([1]; enhancer 2 wt%, heparin 5 mg/rat): +117% | promoting effect (P %) [1, 2]: +122%

Compound: CCCCCCCCCCCCOS(=O)(=O)[O-].[Na+] [Sodium dodecyl sulfate]
promoting effect (P %) [1, 2]: +189%

Compound: Low molecular weight heparin
anti Xa (Xa; mean molecular weight 3450 daltons, Bioiberica): 138 units/mg | anti Xa (Xa; mean molecular weight 5300 daltons, Bioiberica): 144 units/mg | anti Xa (Xa; molecular weight 3949, Bioiberica): 113 units/mg
